In PubChem BioAssay (NCI):
Several values for one entry are separate records, joined by “and”; a condition that tells them apart may be missing. Equal entries are not always repeated.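 Grown in 96-well plates, cells were treated for 48 hours with each compound at five concentrations. Insufficient inhibition: endpoint recorded as highest concentration tested. Abbreviation: GI50, concentration required for 50% inhibition of growth. The concentration for full growth arrest is given as TGI.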

System: 786-0 renal
Experiment: DTP human tumour cell line panel, 48 h

SMILES | GI50 | TGI
COc1cc2c(cc1OCCCOc1cc3c(cc1OC)C(=O)N1C[C@H](F)C[C@H]1C=N3)N=C[C@@H]1C[C@@H](F)CN1C2=O | 8.45 µM | 20.6 µM
Cn1c([N+](=O)[O-])cnc1/C=C1\Oc2ccccc2C1=O | 0.203 µM | 3.67 µM
O=[N+]([O-])c1cccc(C2N3CCCCC3[C@@H]3c4[nH]c5ccccc5c4CCN23)c1 (stereo partly specified) |  | 43.3 µM
Cc1c[nH]c2c(O)cc3c(c12)[C@H](CCl)CN3C(=O)c1cc2cc(NC(=O)Nc3ccc4[nH]c(C(=O)N5C[C@@H](CCl)c6c5cc(O)c5[nH]cc(C)c65)cc4c3)ccc2[nH]1 | 0.000203 µM | 
CCOC(=O)NC(=O)c1cn(CC(=O)NCC(=O)NCC(=O)NCCCN2CCN(CCCNC(=O)CNC(=O)CNC(=O)Cn3cc(C(=O)NC(=O)OCC)c(=O)[nH]c3=O)CC2)c(=O)[nH]c1=O |  | > 100 µM
CN1CCN(CCCN)CC1 |  | > 100 µM
CC(=O)Nc1ccc(C(=O)NN2C(=O)C(Cl)C2c2ccc(Cl)cc2)cc1 (stereo unspecified) |  | 40.3 µM
CCC1(CC)C(=O)OC(=O)C1(CC)CC |  | > 100 µM
CC(C)(C#N)c1cc(Cn2cncn2)cc(C(C)(C)C#N)c1 | 892 µM | > 10000 µM
CCNC(=O)CCN(C(=O)O)S(=O)(=O)c1ccc(NC(=O)c2ccccc2)cc1 |  | 28.3 µM
CC1C[C@@]2(c3ccccc3)C(=O)CCC[C@H]2N1 (stereo partly specified) |  | > 100 µM
COC(=O)c1cc2c(cc1Cl)SC(N(N(C)C)S(=O)(=O)c1ccc(Br)s1)=NS2(=O)=O | 35.1 µM | > 100 µM
CCN(CC)CCC(=O)NC1c2ccc(Cl)cc2Oc2c(C)cccc21 (stereo unspecified) |  | 25.2 µM
CCOC(=O)c1cc(C#N)c(=O)n(/N=C(\C)c2ccncc2)c1O | > 100 µM | > 100 µM

System: A549 NSCLC
Experiment: DTP human tumour cell line panel, 48 h

SMILES | GI50 | TGI
COc1cc2c(cc1OCCCOc1cc3c(cc1OC)C(=O)N1C[C@H](F)C[C@H]1C=N3)N=C[C@@H]1C[C@@H](F)CN1C2=O | 13.6 µM | 28.5 µM
Cn1c([N+](=O)[O-])cnc1/C=C1\Oc2ccccc2C1=O | 1.02 µM | 5.12 µM
O=[N+]([O-])c1cccc(C2N3CCCCC3[C@@H]3c4[nH]c5ccccc5c4CCN23)c1 (stereo partly specified) |  | 45.5 µM
Cc1c[nH]c2c(O)cc3c(c12)[C@H](CCl)CN3C(=O)c1cc2cc(NC(=O)Nc3ccc4[nH]c(C(=O)N5C[C@@H](CCl)c6c5cc(O)c5[nH]cc(C)c65)cc4c3)ccc2[nH]1 | 1.31 nM and 0.000888 µg/mL | 75.5 µM and 0.00228 µg/mL
CCOC(=O)NC(=O)c1cn(CC(=O)NCC(=O)NCC(=O)NCCCN2CCN(CCCNC(=O)CNC(=O)CNC(=O)Cn3cc(C(=O)NC(=O)OCC)c(=O)[nH]c3=O)CC2)c(=O)[nH]c1=O |  | > 100 µM
CN1CCN(CCCN)CC1 |  | > 100 µM
CC(=O)Nc1ccc(C(=O)NN2C(=O)C(Cl)C2c2ccc(Cl)cc2)cc1 (stereo unspecified) |  | > 100 µM
CCC1(CC)C(=O)OC(=O)C1(CC)CC |  | > 100 µM
CC(C)(C#N)c1cc(Cn2cncn2)cc(C(C)(C)C#N)c1 | 933 µM | > 10000 µM
CCNC(=O)CCN(C(=O)O)S(=O)(=O)c1ccc(NC(=O)c2ccccc2)cc1 |  | > 100 µM
CC1C[C@@]2(c3ccccc3)C(=O)CCC[C@H]2N1 (stereo partly specified) |  | > 100 µM
COC(=O)c1cc2c(cc1Cl)SC(N(N(C)C)S(=O)(=O)c1ccc(Br)s1)=NS2(=O)=O | 32 µM | > 100 µM
CCN(CC)CCC(=O)NC1c2ccc(Cl)cc2Oc2c(C)cccc21 (stereo unspecified) |  | 33.3 µM
CCOC(=O)c1cc(C#N)c(=O)n(/N=C(\C)c2ccncc2)c1O | > 100 µM | > 100 µM

System: COLO 205 colon
Experiment: DTP human tumour cell line panel, 48 h

SMILES | GI50 | TGI
COc1cc2c(cc1OCCCOc1cc3c(cc1OC)C(=O)N1C[C@H](F)C[C@H]1C=N3)N=C[C@@H]1C[C@@H](F)CN1C2=O | 14.4 µM | 27.4 µM
Cn1c([N+](=O)[O-])cnc1/C=C1\Oc2ccccc2C1=O | 0.543 µM | 3.02 µM
O=[N+]([O-])c1cccc(C2N3CCCCC3[C@@H]3c4[nH]c5ccccc5c4CCN23)c1 (stereo partly specified) |  | 32.8 µM
Cc1c[nH]c2c(O)cc3c(c12)[C@H](CCl)CN3C(=O)c1cc2cc(NC(=O)Nc3ccc4[nH]c(C(=O)N5C[C@@H](CCl)c6c5cc(O)c5[nH]cc(C)c65)cc4c3)ccc2[nH]1 | 0.0137 µM | 
CCOC(=O)NC(=O)c1cn(CC(=O)NCC(=O)NCC(=O)NCCCN2CCN(CCCNC(=O)CNC(=O)CNC(=O)Cn3cc(C(=O)NC(=O)OCC)c(=O)[nH]c3=O)CC2)c(=O)[nH]c1=O |  | > 100 µM
CN1CCN(CCCN)CC1 |  | > 100 µM
CC(=O)Nc1ccc(C(=O)NN2C(=O)C(Cl)C2c2ccc(Cl)cc2)cc1 (stereo unspecified) |  | > 100 µM
CCC1(CC)C(=O)OC(=O)C1(CC)CC |  | > 100 µM
CC(C)(C#N)c1cc(Cn2cncn2)cc(C(C)(C)C#N)c1 | 2070 µM | > 10000 µM
CCNC(=O)CCN(C(=O)O)S(=O)(=O)c1ccc(NC(=O)c2ccccc2)cc1 |  | > 100 µM
COC(=O)c1cc2c(cc1Cl)SC(N(N(C)C)S(=O)(=O)c1ccc(Br)s1)=NS2(=O)=O | 21.2 µM | 50.9 µM
CCN(CC)CCC(=O)NC1c2ccc(Cl)cc2Oc2c(C)cccc21 (stereo unspecified) |  | 40.1 µM
CCOC(=O)c1cc(C#N)c(=O)n(/N=C(\C)c2ccncc2)c1O | > 100 µM | > 100 µM

System: HCC-2998 colon
Experiment: DTP human tumour cell line panel, 48 h

SMILES | GI50 | TGI
Cn1c([N+](=O)[O-])cnc1/C=C1\Oc2ccccc2C1=O | 1.9 µM | 5.06 µM
CCOC(=O)NC(=O)c1cn(CC(=O)NCC(=O)NCC(=O)NCCCN2CCN(CCCNC(=O)CNC(=O)CNC(=O)Cn3cc(C(=O)NC(=O)OCC)c(=O)[nH]c3=O)CC2)c(=O)[nH]c1=O |  | > 100 µM
CC(=O)Nc1ccc(C(=O)NN2C(=O)C(Cl)C2c2ccc(Cl)cc2)cc1 (stereo unspecified) |  | > 100 µM
CCC1(CC)C(=O)OC(=O)C1(CC)CC |  | > 100 µM
CC(C)(C#N)c1cc(Cn2cncn2)cc(C(C)(C)C#N)c1 | > 10000 µM | > 10000 µM
CCNC(=O)CCN(C(=O)O)S(=O)(=O)c1ccc(NC(=O)c2ccccc2)cc1 |  | > 100 µM
COC(=O)c1cc2c(cc1Cl)SC(N(N(C)C)S(=O)(=O)c1ccc(Br)s1)=NS2(=O)=O | 19.7 µM | 40.6 µM
CCN(CC)CCC(=O)NC1c2ccc(Cl)cc2Oc2c(C)cccc21 (stereo unspecified) |  | 39 µM
CCOC(=O)c1cc(C#N)c(=O)n(/N=C(\C)c2ccncc2)c1O | > 100 µM | > 100 µM

System: HT29 colon
Experiment: DTP human tumour cell line panel, 48 h

SMILES | GI50 | TGI
COc1cc2c(cc1OCCCOc1cc3c(cc1OC)C(=O)N1C[C@H](F)C[C@H]1C=N3)N=C[C@@H]1C[C@@H](F)CN1C2=O | 17.3 µM | 41.9 µM
Cn1c([N+](=O)[O-])cnc1/C=C1\Oc2ccccc2C1=O | 0.203 µM | 0.629 µM
O=[N+]([O-])c1cccc(C2N3CCCCC3[C@@H]3c4[nH]c5ccccc5c4CCN23)c1 (stereo partly specified) |  | 19.8 µM
Cc1c[nH]c2c(O)cc3c(c12)[C@H](CCl)CN3C(=O)c1cc2cc(NC(=O)Nc3ccc4[nH]c(C(=O)N5C[C@@H](CCl)c6c5cc(O)c5[nH]cc(C)c65)cc4c3)ccc2[nH]1 | 0.00416 ng/mL | > 100 µM and 0.00887 µg/mL
CCOC(=O)NC(=O)c1cn(CC(=O)NCC(=O)NCC(=O)NCCCN2CCN(CCCNC(=O)CNC(=O)CNC(=O)Cn3cc(C(=O)NC(=O)OCC)c(=O)[nH]c3=O)CC2)c(=O)[nH]c1=O |  | > 100 µM
CN1CCN(CCCN)CC1 |  | > 100 µM
CC(=O)Nc1ccc(C(=O)NN2C(=O)C(Cl)C2c2ccc(Cl)cc2)cc1 (stereo unspecified) |  | > 100 µM
CCC1(CC)C(=O)OC(=O)C1(CC)CC |  | > 100 µM
